From patent publication EP4692094A1 (Beijing Konruns Pharmaceutical Co., Ltd., priority 2023, dated 2024) come the findings set out here.

For data set [1], the target named is T1, hERG channel (Homo sapiens, UniProt Q12809).
T1 construct: expressed in transfected cells; host or cells: HEK-293
Briefly: hERG channel assay (manual patch clamp). Format: cell-based. The following applies: HEK-293 cell line stably expressing the hERG channel, room temperature. The method, then: 1.1 Test methods: This experiment adopted a manual patch clamp technology to detect the blocking effect of the compounds on electric current in the HEK-293 cell line stably expressing the hERG channel, and the risk of the compounds on the inhibitory effect on the cardiac hERG potassium channel was evaluated by fitting a concentration-effect relationship.
1.2 Experimental procedures: The patch clamp operation was performed as follows: Firstly, a capillary glass tube was drawn into a recording electrode with a microelectrode drawing instrument. An electrode filled with the intracellular fluid was mounted on the microelectrode holder. Under an inverted microscope, a microelectrode manipulator was used to immerse the electrode in the extracellular fluid, and the electrode resistance (Rpip) was recorded. The electrode was then slowly brought into contact with the cell surface, and negative pressure was applied to form a GΩ seal. At this time, fast capacitance compensation was performed, and the application of negative pressure was continued to break the cell membrane, forming a whole-cell recording mode. Finally, slow capacitance compensation was performed, and experimental parameters such as series resistance (Rs) were recorded. No current leakage compensation was provided. Administration was started when the hERG current of the whole-cell record was stable. Each drug concentration was maintained for about 5 min (or until the current was stable) for action before the next concentration was measured. Multiple concentrations were measured for each test compound. The coverslip with cells applied thereon was placed in the recording chamber under the inverted microscope. Gravity perfusion was used to flow the blank control extracellular fluid and the working solutions of the test compounds sequentially from low to high concentrations over the cells in the recording chamber. A peristaltic pump was used for liquid exchange during recording. For each cell, the current detected in the compound-free extracellular fluid was used as its own control group. The test was independently repeated three times for each concentration. All electrophysiological experiments were performed at room temperature.
Data processing: First, the tail current (Peak tail currentcompound) after the action of each drug concentration was standardized with the tail current of the blank control (Peak tail currentcontrol), and then the inhibition rate corresponding to each drug concentration was calculated ( 1−(Peak tail currentcompound)/(Peak tail currentcontrol) [formula] ). Subsequently, the mean, standard deviation (SD), and standard error (SE) were calculated for the inhibition rate corresponding to each concentration. The data were represented by Mean ± SE. IC50 value calculation of the compounds and dose-effect curve fitting were performed using the GraphPad Prism software. The data obtained are shown in Table 12: Table 12. hERG channel assay results
In general terms: Block of hERG is tested as a sign of cardiac risk.

A short description of data set [2]: In-vivo pharmacokinetic study in rats. The arrangement: species or system SD female rats. The following applies: rat, plasma, po, 5 mg/kg, intragastric administration.
Data set [3] concerns the target T2, KAT6A (Homo sapiens, UniProt Q92794).
T2 construct: purchased active motife (Active Motif) 81223
Briefly: Enzymatic activity assay for KAT6A acetyltransferase (TR-FRET, acetylation of histone substrate H3). Format: biochemical. The method, boiled down: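 TR-FRET detection of biotinylated H3 acetylation by KAT6A with acetyl-CoA; compounds in 10-point 3-fold dilution (0.5% DMSO final) preincubated with enzyme 10 min at 25 °C, then 90 min reaction and 60 min Eu-antibody/ULight-SA detection at 25 °C. HTRF 665/615 ratio normalised to DMSO (0%) and top-dose control (100%); IC50 by nonlinear fit.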

T1 sequence (Q12809 whole entry): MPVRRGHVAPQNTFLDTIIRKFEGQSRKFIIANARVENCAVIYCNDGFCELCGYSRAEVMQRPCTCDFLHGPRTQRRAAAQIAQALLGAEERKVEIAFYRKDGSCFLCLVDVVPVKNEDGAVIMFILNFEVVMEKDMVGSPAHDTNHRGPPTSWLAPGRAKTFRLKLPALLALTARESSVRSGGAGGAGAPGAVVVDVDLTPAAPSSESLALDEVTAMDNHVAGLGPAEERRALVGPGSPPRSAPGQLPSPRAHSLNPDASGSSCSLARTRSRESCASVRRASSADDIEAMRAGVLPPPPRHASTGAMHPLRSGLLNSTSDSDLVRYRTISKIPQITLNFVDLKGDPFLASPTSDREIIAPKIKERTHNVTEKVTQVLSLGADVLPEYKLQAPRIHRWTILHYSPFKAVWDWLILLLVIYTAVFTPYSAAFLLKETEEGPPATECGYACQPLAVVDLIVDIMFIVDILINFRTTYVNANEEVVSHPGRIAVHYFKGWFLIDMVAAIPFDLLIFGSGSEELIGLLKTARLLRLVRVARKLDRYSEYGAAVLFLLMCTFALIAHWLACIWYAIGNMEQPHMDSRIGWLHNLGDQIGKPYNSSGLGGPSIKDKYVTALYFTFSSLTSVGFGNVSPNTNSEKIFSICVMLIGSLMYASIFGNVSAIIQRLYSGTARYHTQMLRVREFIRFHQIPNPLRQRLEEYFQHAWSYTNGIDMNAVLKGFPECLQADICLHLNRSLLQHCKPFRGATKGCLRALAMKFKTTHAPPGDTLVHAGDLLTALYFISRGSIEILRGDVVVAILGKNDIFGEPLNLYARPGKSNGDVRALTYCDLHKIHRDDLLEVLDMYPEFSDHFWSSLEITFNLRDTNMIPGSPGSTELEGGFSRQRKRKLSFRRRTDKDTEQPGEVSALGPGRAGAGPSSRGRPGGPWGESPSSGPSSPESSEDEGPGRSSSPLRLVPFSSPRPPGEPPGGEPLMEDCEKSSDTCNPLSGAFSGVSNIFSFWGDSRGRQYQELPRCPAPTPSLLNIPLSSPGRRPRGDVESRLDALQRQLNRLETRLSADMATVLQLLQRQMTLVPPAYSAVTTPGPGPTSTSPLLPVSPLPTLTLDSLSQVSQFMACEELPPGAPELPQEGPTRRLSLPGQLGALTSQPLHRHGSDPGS
T2 sequence (Q92794 whole entry): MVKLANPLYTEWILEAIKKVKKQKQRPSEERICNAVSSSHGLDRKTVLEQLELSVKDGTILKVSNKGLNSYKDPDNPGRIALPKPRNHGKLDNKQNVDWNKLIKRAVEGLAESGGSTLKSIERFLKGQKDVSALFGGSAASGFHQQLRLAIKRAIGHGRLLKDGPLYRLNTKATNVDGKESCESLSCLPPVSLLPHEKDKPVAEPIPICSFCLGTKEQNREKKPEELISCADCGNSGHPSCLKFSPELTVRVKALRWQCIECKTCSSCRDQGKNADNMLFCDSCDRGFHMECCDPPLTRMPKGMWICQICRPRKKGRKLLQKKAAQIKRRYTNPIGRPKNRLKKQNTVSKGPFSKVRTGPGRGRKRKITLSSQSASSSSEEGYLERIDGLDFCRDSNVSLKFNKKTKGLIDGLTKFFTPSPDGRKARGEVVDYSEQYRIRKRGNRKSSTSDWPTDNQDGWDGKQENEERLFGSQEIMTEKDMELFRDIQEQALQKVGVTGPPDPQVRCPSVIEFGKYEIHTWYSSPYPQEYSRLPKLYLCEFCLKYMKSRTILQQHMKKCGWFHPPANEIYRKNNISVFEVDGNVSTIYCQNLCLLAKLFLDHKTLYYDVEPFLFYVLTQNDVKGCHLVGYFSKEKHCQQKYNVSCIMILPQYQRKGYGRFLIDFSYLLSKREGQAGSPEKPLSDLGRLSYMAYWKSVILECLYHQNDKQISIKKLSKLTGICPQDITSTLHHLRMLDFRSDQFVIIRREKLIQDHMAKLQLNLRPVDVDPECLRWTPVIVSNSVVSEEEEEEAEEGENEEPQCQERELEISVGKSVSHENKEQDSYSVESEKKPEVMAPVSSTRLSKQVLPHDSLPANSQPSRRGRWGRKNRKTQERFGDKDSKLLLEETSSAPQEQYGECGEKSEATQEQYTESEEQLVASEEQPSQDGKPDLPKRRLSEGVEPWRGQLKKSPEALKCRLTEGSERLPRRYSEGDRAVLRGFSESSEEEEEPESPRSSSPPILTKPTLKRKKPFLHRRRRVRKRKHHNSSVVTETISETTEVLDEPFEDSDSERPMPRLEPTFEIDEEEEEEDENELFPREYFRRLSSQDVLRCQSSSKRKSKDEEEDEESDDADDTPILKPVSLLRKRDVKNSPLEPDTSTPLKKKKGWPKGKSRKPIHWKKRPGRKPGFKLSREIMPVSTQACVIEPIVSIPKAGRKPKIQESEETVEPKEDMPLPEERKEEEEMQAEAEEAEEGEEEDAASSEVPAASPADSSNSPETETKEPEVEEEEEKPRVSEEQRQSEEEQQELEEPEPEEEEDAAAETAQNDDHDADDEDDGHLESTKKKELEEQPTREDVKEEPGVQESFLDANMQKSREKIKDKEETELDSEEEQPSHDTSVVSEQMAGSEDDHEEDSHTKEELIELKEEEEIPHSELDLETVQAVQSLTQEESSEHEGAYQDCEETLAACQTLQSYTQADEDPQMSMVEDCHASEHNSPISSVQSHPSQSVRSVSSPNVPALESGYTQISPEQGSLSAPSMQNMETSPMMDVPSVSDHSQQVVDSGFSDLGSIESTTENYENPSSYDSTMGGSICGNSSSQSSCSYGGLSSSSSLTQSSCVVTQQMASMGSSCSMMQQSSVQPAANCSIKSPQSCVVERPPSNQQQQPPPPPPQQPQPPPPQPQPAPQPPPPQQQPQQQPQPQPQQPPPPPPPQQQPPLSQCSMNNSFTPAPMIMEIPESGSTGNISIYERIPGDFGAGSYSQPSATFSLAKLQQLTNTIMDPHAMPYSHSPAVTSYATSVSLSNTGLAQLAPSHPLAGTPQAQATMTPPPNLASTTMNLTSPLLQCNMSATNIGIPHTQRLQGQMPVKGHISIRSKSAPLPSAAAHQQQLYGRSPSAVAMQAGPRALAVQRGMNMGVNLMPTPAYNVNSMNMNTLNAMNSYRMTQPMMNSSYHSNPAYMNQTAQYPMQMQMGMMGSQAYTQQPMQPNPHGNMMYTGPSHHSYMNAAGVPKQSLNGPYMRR

Consider `COc1cc2c(cc1S(=O)(=O)Nc1noc3cc(Cn4cccn4)nc(OC)c13)CCCC2` [Example 2, N-(6-((1H-Pyrazol-1-yl)methyl)-4-methoxyisoxazolo[4,5-c]pyridin-3-yl)-3-methoxy-5,6,7,8-tetrahydronaphthalene-2-sulfonamide], for which, in data set [1], the IC50 (in general, the point on the concentration scale where inhibition reaches its midpoint) was greater than 30000 nM. Moreover, in data set [2] (female, SD), the half-life – broadly, how long it takes for the measured level to halve – is no more than 10 h; the AUC(0-inf) (commonly the area under the concentration-time curve extrapolated to infinity) is 71500 ng·h/mL; the Cmax (usually the highest concentration seen after dosing) was determined as 4410 ng/mL; the Tmax (as a rule, the time from dosing to the highest level) turned out to be 6 h. For the same compound, in data set [2] (female, SD, read-out: AUC0-24h), the AUC(0-t) came out at 64800 ng·h/mL. In data set [3], this compound had an IC50 of 0.72 nM.

`COc1nc(Cn2cccn2)cc2onc(NS(=O)(=O)c3cccc4c3OCCO4)c12` [Example 4, N-(6-((1H-Pyrazol-1-yl)methyl)-4-methoxyisoxazolo[4,5-c]pyridin-3-yl)-2,3-dihydrobenzo[b][1,4]dioxine-5-sulfonamide] registered an IC50 in data set [1] greater than 30000 nM. Further, in data set [2] (female, SD), the AUC(0-inf) stood at 12000 ng·h/mL, the Cmax was 5960 ng/mL and the Tmax amounted to 0.25 h. The AUC(0-t) in data set [2] (female, SD, read-out: AUC0-24h) was determined as 11800 ng·h/mL. This compound also came in with an IC50 in data set [3] of 1.51 nM.

The compound `COc1nc(Cn2cccn2)cc2onc(NS(=O)(=O)c3cccc4ccoc34)c12` [Example 5, N-(6-((1H-Pyrazol-1-yl)methyl)-4-methoxyisoxazolo[4,5-c]pyridin-3-yl)benzofuran-7-sulfonamide] yielded a half-maximal inhibitory concentration (IC50) in data set [1] greater than 30000 nM. Moreover, in data set [2] (female, SD), the half-life was no more than 10 h, the AUC(0-inf) was determined as 19700 ng·h/mL, the Cmax turned out to be 5960 ng/mL and the Tmax was 0.25 h. The AUC(0-t) in data set [2] (female, SD, read-out: AUC0-24h) is 18500 ng·h/mL. This compound returned an IC50 in data set [3] of 4.52 nM.

In data set [1], `COc1ccc2c(c1S(=O)(=O)Nc1noc3cc(Cn4cccn4)nc(OC)c13)OCC2` [Example 9, N-(6-((1H-Pyrazol-1-yl)methyl)-4-methoxyisoxazolo[4,5-c]pyridin-3-yl)-6-methoxy-2,3-dihydrobenzofuran-7-sulfonamide] displayed an IC50 greater than 30000 nM. Further, in data set [2] (female, SD), the AUC(0-inf) stood at 215000 ng·h/mL, the highest level (Cmax) was 22500 ng/mL and the Tmax was 1.83 h. The AUC(0-t) in data set [2] (female, SD, read-out: AUC0-24h) came to 215000 ng·h/mL. The compound further had an IC50 in data set [3] of 0.92 nM.

Consider `COc1ccc2ccoc2c1S(=O)(=O)Nc1noc2cc(Cn3cccn3)nc(OC)c12` [Example 10, N-(6-((1H-Pyrazol-1-yl)methyl)-4-methoxyisoxazolo[4,5-c]pyridin-3-yl)-6-methoxybenzofuran-7-sulfonamide], for which, in data set [1], the IC50 is greater than 30000 nM. In addition, in data set [2] (female, SD), the AUC(0-inf) came out at 74300 ng·h/mL, the Cmax turned out to be 10500 ng/mL and the Tmax was found to be 0.5 h. The AUC(0-t) in data set [2] (female, SD, read-out: AUC0-24h) stood at 72300 ng·h/mL. Besides, in data set [3], inhibition was half-maximal at 0.38 nM (IC50).

Consider `COc1cc2c(cc1S(=O)(=O)Nc1noc3cc(Cn4cccn4)nc(OC)c13)OCC2` [Example 59, N-(6-((1H-Pyrazol-1-yl)methyl)-4-methoxyisoxazolo[4,5-c]pyridin-3-yl)-5-methoxy-2,3-dihydrobenzofuran-6-sulfonamide], for which the IC50 in data set [1] is greater than 30000 nM. In data set [2] (female, SD), the AUC(0-inf) turned out to be 167000 ng·h/mL, the peak level (Cmax) was 16500 ng/mL and the Tmax turned out to be 1.17 h. Also, the AUC(0-t) in data set [2] (female, SD, read-out: AUC0-24h) came out at 166000 ng·h/mL. Moreover, inhibition in data set [3] was half-maximal at 0.95 nM (IC50).

Turning to `COc1cc2c(cc1S(=O)(=O)Nc1noc3cc(Cn4cccn4)nc(OC)c13)CCCO2` [Example 76, N-(6-((1H-Pyrazol-1-yl)methyl)-4-methoxyisoxazolo[4,5-c]pyridin-3-yl)-7-methoxy-3,4-dihydro-1H-benzopyran-6-sulfonamide], in data set [2], the total exposure AUC(0-inf) amounted to 162000 ng·h/mL, the Cmax was determined as 14400 ng/mL and the Tmax turned out to be 2.33 h. In data set [2] (read-out: AUC0-24h), the AUC(0-t) at 24 h worked out at 158000 ng·h/mL. Moreover, half-maximal inhibition in data set [3] (IC50) was put at 1.05 nM.
